The record followed here is patent US20030135023A1, “Peptide structures useful for competitive modulation of dipeptidyl peptidase IV catalysis” (priority 2001, published 2003).

Square brackets hold non-standard residues; d marks the D form. Peptide text beside a SMILES is read from it. Tle = CC(C)(C)[C@H](N)C(=O)O

Assay [1] has as its target T1, purified porcine DP IV (Sus scrofa, UniProt P22411). Description: Determination of IC50-values, Gly-Pro-pNA cleavage by DP IV. It counts as biochemical. Conditions: Gly-Pro-pNA 0.4 mM, HEPES pH 7.6, 30° C.; read-out: IC50. As for the experimental part:
(§1) 100 μl inhibitor stock solution were mixed with 100 μl buffer (HEPES pH 7.6) and 50 μl substrate (Gly-Pro-pNA, final concentration 0.4 mM) and preincubated at 30° C. Reaction was started by addition of 20 μl purified porcine DP IV. Formation of the product pNA was measured at 405 nm over 10 min using the HTS 7000 Plus plate reader (Perkin Elmer) and slopes were calculated. The final inhibitor concentrations ranged between 1 mM and 30 nM.
For calculation of IC50-values GraFit 4.0.13 (Erithacus Software) was used.

The target in assay [2] is T1, purified porcine DP IV. Put plainly: Determination of Ki-values, Gly-Pro-pNA cleavage by DP IV. It counts as biochemical. The following applies: Gly-Pro-pNA 0.05-0.4 mM. As for the experimental part:
as §1
Calculations were performed using the GraFit Software.

Assay [3] deals with diabetic Zucker rats (fa/fa). Put plainly: Oral glucose tolerance test (OGTT) in diabetic Zucker rats. It counts as in vivo. Conditions: 100 mg/kg b.w. p.o. As for the experimental part:
N=30 male Zucker rats (fa/fa), mean age 11 weeks (5-12 weeks), mean body weight 350 g (150-400 g), were purchased from Charles River (Sulzfeld, Germany). They were kept for >12 weeks until all the fatty Zucker rats had the characteristics of manifest Diabetes mellitus.
After overnight fasting, the fatty Zucker rats were given placebo, positive control and test substance, respectively, via feeding tube orally (15 G, 75 mm; Fine Science Tools, Heidelberg, Germany) at −10 min. An oral glucose tolerance test (OGTT) with 2 g/kg b.w. glucose as a 40% solution (B. Braun Melsungen, Melsungen, Germany) was implemented at ±0 min. The glucose was administered via a second feeding tube. Arterial blood samples from the carotid catheter were collected at −30 min, −15 min, ±0 min and at 5, 10, 15, 20, 30, 40, 60, 90 and 120 min into 20 μl glass capillaries, which were placed in standard tubes filled with 1 ml solution for hemolysis (blood glucose measurement).
Blood glucose: Glucose levels were measured using the glucose oxidase procedure (Super G Glukosemeβgerät; Dr. Müller Gerätebau, Freital, Germany).

T1 sequence (P22411 whole entry): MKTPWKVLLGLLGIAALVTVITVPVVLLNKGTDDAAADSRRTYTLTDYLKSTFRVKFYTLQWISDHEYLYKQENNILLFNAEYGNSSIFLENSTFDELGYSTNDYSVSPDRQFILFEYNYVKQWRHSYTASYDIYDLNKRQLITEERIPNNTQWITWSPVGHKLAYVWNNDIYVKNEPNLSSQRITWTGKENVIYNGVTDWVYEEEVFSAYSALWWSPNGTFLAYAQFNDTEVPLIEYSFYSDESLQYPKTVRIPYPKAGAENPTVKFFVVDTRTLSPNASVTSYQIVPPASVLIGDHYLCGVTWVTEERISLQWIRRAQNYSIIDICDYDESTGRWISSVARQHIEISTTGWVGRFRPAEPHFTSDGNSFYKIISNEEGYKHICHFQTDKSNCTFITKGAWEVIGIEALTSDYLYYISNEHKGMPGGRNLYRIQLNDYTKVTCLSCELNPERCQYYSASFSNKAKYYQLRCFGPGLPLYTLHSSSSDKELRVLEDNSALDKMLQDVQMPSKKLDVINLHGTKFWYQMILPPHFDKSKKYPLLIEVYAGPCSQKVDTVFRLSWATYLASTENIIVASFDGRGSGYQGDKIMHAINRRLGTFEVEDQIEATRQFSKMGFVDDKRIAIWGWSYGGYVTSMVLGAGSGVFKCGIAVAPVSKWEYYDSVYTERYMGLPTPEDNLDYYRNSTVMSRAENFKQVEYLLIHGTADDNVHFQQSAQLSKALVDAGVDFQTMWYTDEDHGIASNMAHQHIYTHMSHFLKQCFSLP

For `CC[C@H](C)[C@H](NC(=O)[C@@H]1CCCN1C(=O)[C@@H](N)C(C)(C)C)C(=O)O` [t-butyl-Gly-Pro-Ile] (H-[Tle]-Pro-Ile-OH; N-terminus and C-terminus assumed), at purified porcine DP IV [1], the IC50 was found to be 9.34 µM. The same compound came in with a Ki at purified porcine DP IV [2] of 3.1 µM. The “Improvement of glucose tolerance” value in assay [3] (AUC test compound vs AUC Control) is listed as 14.8%. The “AUC test compound (glucose, OGTT)” value in assay [3] (OGTT 2 g/kg glucose) worked out at 653.2 mmol·min/L.

Usually IC50 stands for the point on the concentration scale where inhibition reaches its midpoint. For orientation: Ki means the dissociation constant of the complex between target and ligand, obtained from inhibition or displacement.
